Molecules are shown by their SMILES. Counter-ions that a name gives are not always drawn.

For twelve compounds, IC50 and inhibition results are on record in patent US20090105278A1, “Selective inhibitors of human corticosteroid syntheses” (Universitat Des Saarlandes, priority 2004, published 2009).

For one assay, the target named is T1, human placental CYP19 (Homo sapiens, UniProt P11511).
T1 construct: The enzyme was obtained from the microsome fraction of fresh human placenta; from tissue; host or cells: human placenta, microsomal fraction
T1 sequence (P11511 1-503): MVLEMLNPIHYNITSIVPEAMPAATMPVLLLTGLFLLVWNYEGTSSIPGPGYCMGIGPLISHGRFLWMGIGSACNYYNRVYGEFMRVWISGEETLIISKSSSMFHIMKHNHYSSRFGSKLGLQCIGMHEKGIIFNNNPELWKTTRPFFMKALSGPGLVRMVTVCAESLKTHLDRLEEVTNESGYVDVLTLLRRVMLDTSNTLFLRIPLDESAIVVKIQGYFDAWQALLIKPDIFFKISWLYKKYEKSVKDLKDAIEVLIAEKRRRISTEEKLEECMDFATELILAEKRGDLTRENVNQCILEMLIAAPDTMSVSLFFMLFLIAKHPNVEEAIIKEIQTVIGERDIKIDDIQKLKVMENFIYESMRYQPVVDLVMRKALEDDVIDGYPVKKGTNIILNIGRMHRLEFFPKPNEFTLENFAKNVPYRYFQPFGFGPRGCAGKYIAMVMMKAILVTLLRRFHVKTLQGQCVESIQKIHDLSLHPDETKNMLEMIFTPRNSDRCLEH
Description: IC50 of CYP19 (human placental microsomes). Conditions: human placental CYP19; testosterone substrate 2.5 μM. The class given is biochemical. How it is done: The isolated microsomes were suspended in a minimum volume of phosphate buffer (0.05 M; pH 7.4; […]). In addition, DTT (10 mM) and EDTA (1 mM) were added to protect the enzyme from degradation reactions.
[…] […] The compounds to be tested were dissolved in DMSO and diluted with buffer to the desired concentration. The final DMSO concentration of the control and inhibitor incubations was about 20%. Each vessel was preincubated in a water bath at 30° C. for 5 min. The reaction was started by adding the microsomal protein (0.1 mg). The total volume of each mixture was 200 μl. After 14 min, the reaction was quenched by adding 200 μl of ice cold 1 mM HgCl2 solution. Two hundred microliters of a 2% aqueous suspension of dextran-coated charcoal, DCC) was added for absorbing the steroids, and the vessels were shaken for 20 min. Thereafter, the charcoal was centrifuged off at 1500 g for 5 min. The radioactive water present in the supernatant (^3H2O) was assayed by scintillation measurement using an LKB-Wallac beta counter. The calculation of the IC50 values was effected by a semilogarithmic plot of the percent inhibition against the inhibitor concentration.

The target in the next assay is T2, human CYP11B2 (Homo sapiens, UniProt P19099).
T2 sequence (P19099 25-503): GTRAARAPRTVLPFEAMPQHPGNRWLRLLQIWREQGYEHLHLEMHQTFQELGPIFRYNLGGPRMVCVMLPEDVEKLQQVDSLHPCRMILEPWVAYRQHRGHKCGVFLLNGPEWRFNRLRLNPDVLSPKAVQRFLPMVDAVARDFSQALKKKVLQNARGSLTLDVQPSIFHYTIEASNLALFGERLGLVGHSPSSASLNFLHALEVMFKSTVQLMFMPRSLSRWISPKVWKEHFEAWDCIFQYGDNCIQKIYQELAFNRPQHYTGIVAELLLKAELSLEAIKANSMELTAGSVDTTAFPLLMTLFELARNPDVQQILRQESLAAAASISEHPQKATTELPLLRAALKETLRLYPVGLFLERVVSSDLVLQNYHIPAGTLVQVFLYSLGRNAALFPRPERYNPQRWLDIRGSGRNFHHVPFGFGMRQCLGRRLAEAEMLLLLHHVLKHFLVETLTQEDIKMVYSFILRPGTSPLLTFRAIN
The experiment in a line: Screening test in transgenic fission yeast (S. pombe PE1) expressing human CYP11B2. Conditions: S. pombe cells which express human CYP11B2; deoxycorticosterone substrate 100 nM; inhibitor 500 nM; read-out: % Inhibition human hCYP11B2. Further details: expressed in transfected cells. The class given is cell-based. A digest of the protocol:
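Deoxycorticosterone conversion to corticosterone, 18-hydroxycorticosterone and aldosterone assessed after EtOAc extraction by HPTLC with 14C phosphorimaging. Conversion rate calculated from quantified steroid spots.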

For `CCOc1ccc2c(c1)CC/C2=C\c1cccnc1` [Compound 19a, 3-[(E)-(5-Ethoxy-2,3-dihydro-1H-indane-1-ylidene)methyl]pyridine Hydrochloride], half-maximal inhibition at human placental CYP19 (IC50) required 7.08 µM. Besides, the inhibition at 0.5 µM on human CYP11B2 was 67%.

`CCOc1ccc2c(c1)CC/C2=C/c1cccnc1` [Compound 19b, 3-[(Z)-(5-Ethoxy-2,3-dihydro-1H-indane-1-ylidene)methyl]pyridine Hydrochloride]: the IC50 against human placental CYP19 is 7.68 µM. The inhibition at 0.5 µM at human CYP11B2 worked out at 52%.

In turn, `Cc1cccc2c1CC/C2=C\c1cccnc1` [Compound 23a, 3-[(E)-(4-Methyl-2,3-dihydro-1H-indane-1-ylidene)methyl]pyridine Hydrochloride] had an IC50 on human placental CYP19 of 4.72 µM. In addition, the inhibition at 0.5 µM at human CYP11B2 was 52%.

The compound `Fc1cccc2c1CC/C2=C\c1cccnc1` [Compound 24a, 3-[(E)-(4-Fluoro-2,3-dihydro-1H-indane-1-ylidene)methyl]pyridine Hydrochloride] showed an IC50 against human placental CYP19 of 1.81 µM. For the same compound, at human CYP11B2, the inhibition at 0.5 µM turned out to be 84%.

Consider `Clc1cccc2c1CC/C2=C\c1cccnc1` [Compound 25a, 3-[(E)-(4-Chloro-2,3-dihydro-1H-indane-1-ylidene)methyl]pyridine Hydrochloride], for which half-maximal inhibition on human placental CYP19 (IC50) was put at 0.13 µM. Besides, at human CYP11B2, the inhibition at 0.5 µM is 92%.

For `Clc1cccc2c1CC/C2=C/c1cccnc1` [Compound 25b, 3-[(Z)-(4-Chloro-2,3-dihydro-1H-indane-1-ylidene)methyl]pyridine Hydrochloride], on human placental CYP19, 0.23 µM corresponded to half-maximal inhibition (IC50). Moreover, the inhibition at 0.5 µM at human CYP11B2 is 83%.

At human placental CYP19, `COc1cccc2c1/C(=C/c1cccnc1)CC2` [Compound 26a, 3-[(E)-(7-Methoxy-2,3-dihydro-1H-indane-1-ylidene)methyl]pyridine Hydrochloride] had an IC50 of 9.74 µM. Besides, at human CYP11B2, the inhibition at 0.5 µM worked out at 76%.

As to `Fc1ccc2c(c1)CC/C2=C\c1cncnc1` [Compound 28a, 5-[(E)-(5-Fluoro-2,3-dihydro-1H-indane-1-ylidene)methyl]pyrimidine Hydrochloride], at human placental CYP19, the IC50 amounted to 7.45 µM. Besides, the inhibition at 0.5 µM at human CYP11B2 was found to be 72%.

Consider `Fc1ccc2c(c1)CC/C2=C\c1cccc2cnccc12` [Compound 30a, 5-[(E)-(5-Fluoro-2,3-dihydro-1H-indane-1-ylidene)methyl]isoquinoline Hydrochloride], for which the IC50 on human placental CYP19 was found to be 0.72 µM. At human CYP11B2, the inhibition at 0.5 µM was found to be 60%.

On to `Fc1ccc2c(c1)CC/C2=C/c1cccc2cnccc12` [Compound 30b, 5-[(Z)-(5-Fluoro-2,3-dihydro-1H-indane-1-ylidene)methyl]isoquinoline Hydrochloride], for which, on human placental CYP19, 1.94 µM corresponded to half-maximal inhibition (IC50). For the same compound, the inhibition at 0.5 µM on human CYP11B2 came out at 91%.

Compound `C(=C1/CCCc2ccccc21)/c1cnc[nH]1` [Compound 41a, 5-[(E)-3,4-Dihydronaphth-1(2H)-ylidenemethyl]-1H-imidazole] gave an IC50 at human placental CYP19 of 0.226 µM. In addition, at human CYP11B2, the inhibition at 0.5 µM amounted to 80%.

Compound `Cl.Clc1ccc2c(c1)CC/C2=C\c1cnc[nH]1` [Compound 48a, 5-[(E)-(5-Chloro-2,3-dihydro-1H-indene-1-ylidene)methyl]-1H-imidazolium chloride] showed an IC50 against human placental CYP19 of 0.33 µM. Also, the inhibition at 0.5 µM on human CYP11B2 was found to be 79%.

Usually IC50 stands for the point on the concentration scale where inhibition reaches its midpoint. Higher therefore signals weaker potency in that assay. As usually defined, the inhibition is the change of the read-out against control, counted positive when it falls.
